Measured values: patent US10639327B1, “Nano-calcium carbonate” (Washington University in St. Louis, priority 2015, dated 2020)

Experiments:
[1] = test system: 2F2B cells; assay: Fluorescent micrographs of cells treated with DOX nanoparticles vs free DOX; format: cell-based; details: 30 min treatment, DOX fluorescence
Protocol: FIG. 4A depicts fluorescent micrographs showing 2F2B cells treated for 30 min with αvβ3-targeted perfluorocarbon nanoparticles incorporating DOX (Left) vs. equimolar exposure of free DOX (Middle).
Not only was significant amount delivered to the nucleus (white arrow), the cytoplasmic content of DOX remained high (yellow arrow), providing a continuous source of DOX for nuclear translocation. […] The data also confirm that DOX fluorescence, which was used to obtain these images, will provide sufficient contrast for imaging DOX's intracellular trafficking to the nuclei.

[2] = test system: HT1080 tumors; details: I.V., 0.3-0.4 g/Kg (~10x the nanoparticle dosage)
Protocol: For determining pHe changes in vivo post bolus particle Intravenous injection, HT1080 tumors were grown subcutaneously in dorsal flanks of athymic nude mice, in dorsal bilateral flanks. Tumors generally grew in one flank. When the tumors growth reached approximately 50 mm^3 or greater, the extracellular pH was measured using an external pH electrode. […] Treatments were discontinued for at least 5 days before performing the in vivo pH measurements. […] The pH was measured using an extracellular pH electrode implanted into the tumor following a 15 min equilibration period after electrode entry. The pH electrode was calibrated within the week. About 1 mg of each size of particles (20 nm, 100 nm, 300 nm) in a 100 μL solution of PBS, CaCl2, MgCl2 and 2% bovine serum albumin was injected intravenously in individual mice. […] Tumor sizes at time of injection for this experiment were 12 mm×9 mm (20 nm particles), 13.7 mm×12.5 mm (100 nm), 13.5 mm×15.5 mm (300 nm), 12.5×16.5 mm (0.84% bicarbonate), 12.5×16.5 mm (7.5% bicarbonate), and 12.5×16.5 mm (vector). In general, the pH was then followed each minute for a minimum of 1 hour, or up to 3 hours if any changes were seen. […] Bleeding, if any, was also noted.

Row | SMILES | cytoplasmic content of DOX [1] | tumor pH change [2]
1 | COc1cccc2c1C(=O)c1c(O)c3c(c(O)c1C2=O)C[C@@](O)(C(=O)CO)C[C@@H]3O[C@H]1C[C@H](N)[C@H](O)[C@H](C)O1 [free DOX, Doxorubicin] | depleted rapidly | –
2 | O=C([O-])O.[Na+] [sodium bicarbonate] | – | did not induce a measurable pH change
